Measurements: patent publication US5543392A, “Digestive tract cell activating agent of EGF and lactoferrin” (Morinaga Milk Industry Co., Ltd., priority 1992, dated 1996)

Experiments:
IEC18 cells [1] = assay: Test 3: proliferation of small intestine epithelial cells (cell count by hemocytometer); format: cell-based, rat; conditions: single addition of 10 ng/ml EGF; ten days culture; versus control group with no addition
Method: ICE18 cells (the same ones as in the Test 1) were inoculated onto a 24-well culture plate by 5,000 cells per well, and were cultured for ten days with 1% FBS DMEM (0.5 ml) containing the following test subjects. During this test period, the medium was replaced on the third and the sixth days, and the number of cells was measured on the third, the sixth and the tenth days. The number of cells was counted by a hemocytometer after treating the cells with 0.25% trypsin solution and suspending them in the solution.
The test subjects included a sample added with nothing, a sample added with 10 ng/ml EGF, a sample added with 50 μg/ml bLf or bLf-Hy, and a sample added with 10 ng/ml EGF and 50 μg/ml bLf or bLf-Hy.

IEC18 cells [2] = assay: Test 1: DNA synthesis acceleration activity of EGF (3H-thymidine incorporation); format: cell-based, rat; conditions: for Quantity of incorporated 3H thymidine, average value (n = 4): 18 h, 1% FBS-DMEM
Method: This test was carried out to determine an optimum concentration for DNA synthesis acceleration activity of EGF relative to small intestine epithelial cells.
IEC18 cells (purchased from the American Type Culture Collection) which are epithelial crypt-cells of rat small intestine were inoculated into a 24-well culture plate by 10,000 cells per hole and cultured with Dulbecco modified Eagle's medium containing 10% fetal bovine serum (hereinafter abbreviated as "10% FBS-DMEM") until the cells became confluence (1 ml of medium was used per well). Then, the medium was replaced with 1% FBS-DMEM culture was conducted for another three days to introduce the cell cycle into the resting phase. The medium was replaced with of 1% FBS-DMEM (0.5 ml) containing EGF at various concentrations and culture was conducted for 18 hours. Then, the medium was replaced with DME (0.35 ml) containing ^3 H-thymidine (tritium labeling: thymidine 1 micro curie/ml), the cultuure was conducted for another two hours. The result cells were rinsed twice with phosphate-buffered saline [PBS (-), 2 ml], then, ice-cooled 5% trifluoroacetic acid (5% TFA, 2 ml) was added. This was stored in a refrigerator for an hour. The cells were washed twice with 5% TFA (2 ml) and 1N NaOH (0.4 ml) was added. By holding this at 37° C. for an hour, the cells were dissolved. Then, the solution was neutralized by adding 6N HCl (0.08 ml), and therefore, the quantity of ^3 H-thymidine incorporated into DNA was measured by means of a liquid scintillation counter.

## EGF: Commercially available mouse submaxillary gland originating EGF (manufactured by Takara Shuzo Company) (NSYPGCPSSYDGYCLNGGVCMHIESLDSYTCNCVIGYSGDRCQTRDLRWWELR; not fully specified; Epidermal growth factor; UniProt P01132 977-1029, looked up)
IEC18 cells [1]
  number of cells (FIGS. 3 and 4): absence of effect
IEC18 cells [2]; EGF concentration 0.08 ng/ml
  Quantity of incorporated 3H thymidine, average value (n = 4): 17874 cpm
IEC18 cells [2]; EGF concentration 0.2 ng/ml (so in the source)
  Quantity of incorporated 3H thymidine, average value (n = 4): 25398 cpm
IEC18 cells [2]; EGF concentration 0.4 ng/ml
  Quantity of incorporated 3H thymidine, average value (n = 4): 19644 cpm
IEC18 cells [2]; EGF concentration 10.0 ng/ml
  Quantity of incorporated 3H thymidine, average value (n = 4): 26152 cpm
IEC18 cells [2]; EGF concentration 50.0 ng/ml
  Quantity of incorporated 3H thymidine, average value (n = 4): 22665 cpm
IEC18 cells [2]; IEC18 cells
  optimum working concentration of EGF for DNA synthesis: 10 ng/mL
